According to patent US9155714B2, “Compositions comprising an aromatic alcohol and a TRPV-1 antagonist, and uses thereof” (JOHNSON & JOHNSON CONSUMER INC., priority 2013, dated 2015):
Values joined by “and” are separate entries in the source; they are usually repeats but may differ in a detail not shown here. Equal entries are not always repeated. Values belong to the molecule of their own block, whether it stands above or below them.

What was measured:
Format in all cases: cell-based
[1] = target: T1, human vanilloid receptor-1 (TRPV-1) (Homo sapiens, UniProt Q8NER1); assay: Calcium Flux Test, inhibition of phenoxyethanol-induced calcium flux; conditions: for reducing phenoxyethanol-induced calcium flux (result in words): TRPV-1-expressing HEK293 cells
T1 construct: host or cells: HEK293
T1 sequence (Q8NER1 whole entry): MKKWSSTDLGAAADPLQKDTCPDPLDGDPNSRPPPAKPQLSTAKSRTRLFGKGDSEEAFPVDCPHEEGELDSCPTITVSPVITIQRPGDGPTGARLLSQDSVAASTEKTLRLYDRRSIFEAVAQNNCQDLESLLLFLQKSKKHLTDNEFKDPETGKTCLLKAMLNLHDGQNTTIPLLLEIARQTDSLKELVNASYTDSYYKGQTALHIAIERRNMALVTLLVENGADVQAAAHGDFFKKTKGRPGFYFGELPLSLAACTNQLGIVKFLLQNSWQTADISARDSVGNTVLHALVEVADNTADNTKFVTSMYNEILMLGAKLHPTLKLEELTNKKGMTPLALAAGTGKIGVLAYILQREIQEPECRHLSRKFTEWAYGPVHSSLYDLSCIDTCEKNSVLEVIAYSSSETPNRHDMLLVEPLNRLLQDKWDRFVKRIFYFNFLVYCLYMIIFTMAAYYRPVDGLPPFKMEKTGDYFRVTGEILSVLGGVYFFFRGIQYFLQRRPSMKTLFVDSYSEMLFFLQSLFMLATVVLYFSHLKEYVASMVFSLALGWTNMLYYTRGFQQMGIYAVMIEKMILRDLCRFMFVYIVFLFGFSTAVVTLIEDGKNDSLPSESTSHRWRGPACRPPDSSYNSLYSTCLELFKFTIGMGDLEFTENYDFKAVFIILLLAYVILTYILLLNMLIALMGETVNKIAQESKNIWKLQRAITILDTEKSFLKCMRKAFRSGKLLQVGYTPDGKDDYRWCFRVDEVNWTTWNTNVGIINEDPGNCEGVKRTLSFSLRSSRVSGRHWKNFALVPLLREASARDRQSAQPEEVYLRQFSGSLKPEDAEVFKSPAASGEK
Experimental: (§1) The Calcium Flux Test is performed in the following manner: Recombinant HEK293 cells expressing human vanilloid receptor-1 (TRPV-1; accession number AF196175, EMD Millipore, Billerica, Mass.) are grown in D-MEM/F-12 media (Life Technologies, Grand Island, N.Y.) supplemented with 10% fetal bovine serum, 1% non essential amino acids and 400 μg/mL Geneticin (Gibco, Life Technologies). Cells are plated at a concentration of 15,000 cells per well on poly-D-lysine-coated 384 well plates and incubated overnight at 5% CO2 and 37° C. After incubation, culture media is removed from the wells and replaced with 50 μL per well of Fluo-8 No Wash dye solution (#36315, AAT Bioquest, Sunnyvale, Calif.). The Fluo-8 dye solution is prepared by mixing 20 uL of Fluo-8 NW with 30 mL of 0.33× Pluronic® F127 Plus (BASF of Ludwigshafen, Germany) in assay buffer (1×HBSS+2% of HEPES). Fluo-8 dye is incubated for 30 minutes at room temperature. Intracellular calcium (Ca^2+) flux is monitored upon exposure to aromatic alcohol in DMSO vehicle by measuring fluorescence intensity at Ex/Em 490/525 on a Functional Drug Screening System (FDSS; Hamamatsu, […]). Measurements are taken every second for a period of 4 minutes. […] Statistical differences are obtained using One Way ANOVA with Tukey Post-hoc test; statistical significance is defined as P≦0.05.
(§2) The Maximum RFU obtained with a given concentration of aromatic alcohol is compared with the Maximum RFU obtained using the same concentration of aromatic alcohol but pretreated with the TRPV-1 antagonist for 5 minutes after dye incubation. Percent inhibition achieved with the TRPV-1 antagonist is calculated as: 100*((Maximum RFU of aromatic alcohol−Maximum RFU of aromatic alcohol pretreated with TRPV-1 antagonist)/Maximum RFU of aromatic alcohol).
(§3) Capsazepine and AMG9810 were tested for activity as TRPV-1 antagonists using the Calcium Flux Test using two different concentrations of phenoxyethanol in DMSO. They were also tested using the Calcium Flux Test in which phenoxyethanol was replaced with capsaicin. […]

[2] = target: T1, human vanilloid receptor-1 (TRPV-1); assay: Calcium Flux Test, phenoxyethanol replaced with capsaicin (capsaicin-induced calcium flux); conditions: capsaicin 300 nM
Experimental: as §1, §2, §3

[3] = target: T1, human vanilloid receptor-1 (TRPV-1); assay: Calcium Flux Test, activity as TRPV-1 agonist
Experimental: as §1
(§4) Phenoxyethanol was tested at a series of concentrations in DMSO for activity as a TRPV-1 agonist according to the Calcium Flux Test described above. Capsaicin was used as a positive control.
(§5) Maximum RFU values for treatment with phenoxyethanol or capsaisin were compared to the Maximum RFU for a DMSO vehicle alone. Concentrations of phenoxyethanol and capsaicin are reported in milimolar (mM) and nanomolar (nM), respectively.
(§6) Benzyl alcohol and sodium bicarbonate were tested using the Calcium Flux Test.
(§7) Benzyl alcohol and phenethyl alcohol were tested at a series of concentrations in DMSO for activity as a TRPV-1 agonist as described in Example 1. Concentrations of benzyl alcohol and phenethyl alcohol are reported in units of % w/v.

[4] = target: T1, human vanilloid receptor-1 (TRPV-1); assay: Calcium Flux Test, activity as TRPV-1 agonist; design: key: **: Statistically significant; n/s: Not statistically significant
Experimental: as §1, §4, §5, §6, §7

[5] = compound 25 μM, phenoxyethanol 2 mM
[6] = compound 25 μM, phenoxyethanol 3 mM
[7] = compound 100 μM, phenoxyethanol 2 mM
[8] = compound 100 μM, phenoxyethanol 3 mM

- Maximum RFU (mean ± SD) [1, 5]: 171.65 ± 83.27 RFU
- Maximum RFU (mean ± SD) [1, 6]: 309.90 ± 40.00 RFU
- Maximum RFU (mean ± SD) [1, 7]: 160.66 ± 30.14 RFU
- Maximum RFU (mean ± SD) [1, 8]: 225.19 ± 38.09 RFU
- Maximum RFU (mean ± SD) ([2]; compound 25 μM): 950.97 ± 49.52 RFU
- Maximum RFU (mean ± SD) ([2]; compound 100 μM): 963.83 ± 65.21 RFU
Structure (SMILES): C[C@]12CCC(=O)C=C1CC[C@@H]1[C@@H]2[C@@H](O)C[C@@]2(C)[C@H]1CC[C@]2(O)C(=O)CO [Hydrocortisone, hydrocortisone]
- reducing phenoxyethanol-induced calcium flux (result in words) [1]: none of hydrocortisone, diphenhydramine or lidocaine were effective

Structure (SMILES): CCN(CC)CC(=O)Nc1c(C)cccc1C [Lidocaine, lidocaine]
- reducing phenoxyethanol-induced calcium flux (result in words) [1]: none of hydrocortisone, diphenhydramine or lidocaine were effective
- Maximum RFU (mean ± SD) [1, 5]: 124.96 ± 22.24 RFU
- Maximum RFU (mean ± SD) [1, 6]: 197.45 ± 41.14 RFU
- Maximum RFU (mean ± SD) [1, 7]: 116.25 ± 25.92 RFU
- Maximum RFU (mean ± SD) [1, 8]: 205.92 ± 16.97 RFU

- intracellular calcium flux in TRPV-1-transfected HEK cells (result in words) [3]: dose dependent increases
Structure (SMILES): OCCc1ccccc1 [Phenethyl Alcohol, phenethyl alcohol]
- Maximum RFU ([3]; phenethyl alcohol 0.000002 % w/v alone (no antagonist)): 12.8 ± 1.35 RFU and 6.43 RFU and 12.28 ± 3.52 RFU
- Maximum RFU ([3]; phenethyl alcohol 0.013 % w/v alone (no antagonist)): 185.92 ± 28.6 RFU and 123.10 RFU and 200.02 ± 6.15 RFU
- Maximum RFU ([3]; phenethyl alcohol 0.04 % w/v alone (no antagonist)): 548.5 ± 37.22 RFU and 441.18 RFU and 470.23 ± 7.11 RFU
- Maximum RFU ([3]; phenethyl alcohol 0.12 % w/v alone (no antagonist)): 755.2 ± 12.89 RFU and 605.31 RFU and 580.44 ± 3.06 RFU

Structure (SMILES): OCCOc1ccccc1 [Phenoxyethanol, 2-phenoxy-1-ethanol]
- P < 0.05 Compared to Vehicle ([4]; phenoxyethanol 0.5 mM): n/s
- P < 0.05 Compared to Vehicle ([4]; phenoxyethanol 0.75 mM): n/s
- P < 0.05 Compared to Vehicle ([4]; phenoxyethanol 1 mM): **
- P < 0.05 Compared to Vehicle ([4]; phenoxyethanol 1.5 mM): **
- P < 0.05 Compared to Vehicle ([4]; phenoxyethanol 2 mM): **
- P < 0.05 Compared to Vehicle ([4]; phenoxyethanol 2.5 mM): **
- P < 0.05 Compared to Vehicle ([4]; phenoxyethanol 3 mM): **
- P < 0.05 Compared to Vehicle ([4]; phenoxyethanol 3.5 mM): **
- P < 0.05 Compared to Vehicle ([4]; phenoxyethanol 4 mM): **
- increase in Maximum RFU values compared to the vehicle alone [3]: thirty to forty-fold
- intracellular calcium flux in TRPV-1-transfected HEK cells (result in words) [3]: dose dependent increases
- Maximum RFU (mean ± SD) ([3]; phenoxyethanol 0.5 mM alone): 96.96 ± 61.20 RFU
- Maximum RFU (mean ± SD) ([3]; phenoxyethanol 0.75 mM alone): 124.81 ± 37.58 RFU
- Maximum RFU (mean ± SD) ([3]; phenoxyethanol 1 mM alone): 200.28 ± 76.93 RFU
- Maximum RFU (mean ± SD) ([3]; phenoxyethanol 1.5 mM alone): 304.41 ± 70.10 RFU
- Maximum RFU (mean ± SD) ([3]; phenoxyethanol 2.5 mM alone): 363.73 ± 44.11 RFU
- Maximum RFU (mean ± SD) ([3]; phenoxyethanol 3 mM alone): 401.68 ± 26.58 RFU and 441.76 ± 36.68 RFU and 224.26 ± 42.60 RFU and 257.93 RFU
- Maximum RFU (mean ± SD) ([3]; phenoxyethanol 3.5 mM alone): 404.21 ± 42.32 RFU
- Maximum RFU (mean ± SD) ([3]; phenoxyethanol 4 mM alone): 453.25 ± 34.18 RFU
